Assay [1] deals with HIV-1 302077 (pediatric). To be noted: PBMC. How it is done:
(§1) Viruses: 6 viruses were titrated.
(§2) 512.2 μl of HIV-1 302076 was added into 9487.8 μl R-3 medium. 512.2 μl of HIV-1 302077 was added into 9487.8 μl R-3 medium. 126.3 μl of HIV-1 302143 was added into 9873.7 μl R-3 medium. 1002.4 μl of HIV-1 301714 was added into 8997.6 R-3 medium. 2000 μl of HIV-1m 2054 was added into 8000.0 μl R-3 medium. 4000 μl of HTLV-IIIB was added into 6000 R-3 μl medium. Viruses were diluted to 100 TCID50 virus stock: 2.5 ml of 2000 TCID50/ml was added to 2.5 ml of R-3 medium, this is 100 TCID50 (in 100 μl) stock. PBMC: Peripheral blood mononuclear cells (PBMC) were separated from HI-1-uninfected donor by Ficoll-hypaque density gradient centrifugation. PBMC were grown in RPMI 1640 supplemented with 20% fetal calf serum, 5% IL-2 and 5 μg/ml PHA (R-3 medium).
(§3) The final three tubes are added to 100 μl PBS. […] The final 3 tubes are added with 100 μPBS. […] The final 3 tubes are added to 100 μl PBS. 100 μl of 100 TCID50 virus stock were aliquoted into all 63 tubes. 2×10^6 PBMC was added in 1.8 ml of R-3 medium (total 2.0 ml per tube). The tubes were incubated at 37° C. overnight.
(§4) The cells were washed 3 times in PBS. […] HIV-1 P24 antigen measurement was performed in the supernatant of each coculture well on days 4 and 7.0.5 ml cells (10^6/ml) in R-3 medium were added on day 4.

Assay [2] relates to HTLV-IIIB (lab). The settings on record: PBMC. How it is done:
as §1, §2, §3, §4

The test system of assay [3] is HIV-1 302143 (pediatric). The settings on record: PBMC. How it is done: as §1, §2, §3, §4
For assay [4], the system named is HIV-1 302076 (pediatric). To be noted: PBMC. How it is done:
as §1, §2, §3, §4

Assay [5] relates to HIV-1 301714 (adult). In words: HIV-1 P24 antigen in PBMC coculture, continuous drug exposure. The class given is cell-based. How it is done:
(§5) Viruses: 6 viruses were titrated. The TCID50/ml of each virus isolate was as the follows:
as §2
(§6) The final 3 tubes are added with 100 μPBS. […] The tubes were incubated at 37° C. overnight.
(§7) The cells were washed 3 times in PBS.

The test system of assay [6] is HIV-1 2054 (adult). The description is as above. The class given is cell-based. How it is done:
as §5, §2, §6, §7

The test system of assay [7] is HIV-1 302077 (pediatric). The settings on record: PBMC. How it is done: as §1, §2
(§8) The above step was repeated for 1:156.25, 781.25, 3906.25 and 19531.25 dilutions. Finally, the concentrations used in the experiment were 2, 0.4, 0.08, 0.016, 0.0032, 0.00064 μg/ml.
(§9) The above step was repeated for 1:625, 1:3125, 1:15625, 1:78125 and 390625 dilution. Finally, the concentrations used in the experiment were 1. 0.2.0.04, 0.008, 0.0016, 0.00032 μg/ml.
as §3, §4
This is another data set of the same source.

Assay [8] relates to HTLV-IIIB (lab). The settings on record: PBMC. How it is done: as §1, §2, §8, §9, §3, §4
This is another data set of the same source.

Assay [9] deals with HIV-1 302143 (pediatric). The settings on record: PBMC. How it is done:
as §1, §2, §8, §9, §3, §4
This is another data set of the same source.

Assay [10] deals with HIV-1 302076 (pediatric). To be noted: PBMC. How it is done:
as §1, §2, §8, §9, §3, §4
The source holds these as a separate data set.

Assay [11] deals with HIV-1 301714 (adult). In words: HIV-1 P24 antigen in PBMC coculture, drug exposure at infection and for 12 hours thereafter. The class given is cell-based. How it is done:
as §5, §2, §8
(§10) The above step was repeated for 1:625, 1:3125, 1:15625, 1:78125 and 390625 dilution. Finally, the concentrations used in the experiment were 1.
as §6, §7

The subject of assay [12] is HIV-1 2054 (adult). Described as above. In kind it is cell-based. How it is done:
as §5, §2, §8, §10, §6, §7

The mark [13] stands for this setting: day 4, continuous drug exposure.
[14] abbreviates: day 7, continuous drug exposure.
Setting [15] is: HIV-1 301714, day 4, continuous drug exposure.
[16] abbreviates: HIV-1 301714, day 7, continuous drug exposure.
The mark [17] stands for this setting: HIV-1 2054, day 4, continuous drug exposure.
The mark [18] stands for this setting: HIV-1 2054, day 7, continuous drug exposure.
Where [19] appears, read: HIV-1 301714, day 4, drugs removed after 12 hours.
Where [20] appears, read: HIV-1 301714, day 7, drugs removed after 12 hours.
Setting [21] is: HIV-1 2054, day 4, drugs removed after 12 hours.
Setting [22] is: HIV-1 2054, day 7, drugs removed after 12 hours.

Like-named read-outs stand apart in the source and are kept apart here.

IC50 data for two substances are collected here from patent publication US20060121480A1, “Synergistic compositions for the prevention and treatment of acquired immunodeficiency syndrome” (priority 2002, published 2006).

A word on the IC50: it is the midpoint of a concentration-inhibition curve.

Take “5A8: humanized monoclonal antibody to CD4”: the IC50 in assay [1] (HIV-1 302077, day 4, continuous drug exposure) amounted to 0.14 µg/mL; in assay [1] (HIV-1 302077, day 7, continuous drug exposure), 0.067 µg/mL; in assay [2] (setting [13]) it was 0.19 µg/mL; in assay [2] (setting [14]) it was 0.16 µg/mL; in assay [3] (HIV-1 302143, day 4, continuous drug exposure), 0.038 µg/mL; in assay [3] (HIV-1 302143, day 7, continuous drug exposure), 0.022 µg/mL. Also, the IC50 in [4] (HIV-1 302076, day 4, continuous drug exposure) was determined as 0.10 µg/mL; in assay [4] (HIV-1 302076, day 7, continuous drug exposure), 0.028 µg/mL; in [5] (setting [15]), 0.14 µg/mL; in assay [5] (setting [16]), 0.30 µg/mL; in assay [6] (setting [17]) it was 0.041 µg/mL; in assay [6] (setting [18]), 0.017 µg/mL. Moreover, the IC50 is 0.17 µg/mL in assay [7] (HIV-1 302077, day 4, drugs removed after 12 hours); 0.50 µg/mL in [7] (HIV-1 302077, day 7, drugs removed after 12 hours); 0.44 µg/mL in assay [8] (day 4, drugs removed after 12 hours); 1.30 µg/mL in assay [8] (day 7, drugs removed after 12 hours); 0.97 µg/mL in [9] (HIV-1 302143, day 4, drugs removed after 12 hours); greater than 2.0 µg/mL in assay [9] (HIV-1 302143, day 7, drugs removed after 12 hours). In addition, the IC50 in assay [10] (HIV-1 302076, day 4, drugs removed after 12 hours) amounted to 0.15 µg/mL; in assay [10] (HIV-1 302076, day 7, drugs removed after 12 hours) it was 0.65 µg/mL; in assay [11] (setting [19]), 0.70 µg/mL; in assay [11] (setting [20]) it was 1.82 µg/mL; in assay [12] (setting [21]), 0.070 µg/mL; in [12] (setting [22]), 0.13 µg/mL.

For enfuvirtide, the IC50 in assay [2] (setting [13]) turned out to be 0.017 µg/mL; in assay [2] (setting [14]), 0.013 µg/mL; in [5] (setting [15]), 0.049 µg/mL; in [5] (setting [16]), 0.040 µg/mL; in [6] (setting [17]) it was 0.019 µg/mL; in assay [6] (setting [18]), 0.16 µg/mL. Further, the IC50 is 0.20 µg/mL in [11] (setting [19]), 0.050 µg/mL in [11] (setting [20]), 0.039 µg/mL in assay [12] (setting [21]) and 0.11 µg/mL in assay [12] (setting [22]).
